This is an account of results in patent US12391660B2, “Heteroaromatic acetamide derivative, and preparation and use thereof” (Hangzhou Westan Pharmaceutical Technology Co., Ltd, priority 2019, dated 2025).

Molecules are shown by their SMILES.

Assay [1] concerns the target T1, human TRPA1 (Homo sapiens (Human), UniProt O75762). Kind of assay: FLIPR assay of inhibitory activity on human TRPA1 (calcium ion flux fluorescence). The class given is cell-based. Conditions: HEK293 cells stably expressing human TRPA1. In outline: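 Tetracycline-induced (0.1 μg/ml) HEK293 cells stably expressing human TRPA1, loaded with 5 μM Fluo-4 AM for 1 h at 37° C. Compounds added in 1:5 dilutions from 30 μM (9 points, duplicate), then 3 mM CaCl2 after 10 min; fluorescence peak at 538 nm gave IC50.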

The target of assay [2] is T1, human TRPA1. Kind of assay: Inhibitory activity on human TRPA1 by conventional patch clamp assay. The class given is cell-based. Particulars: for inhibition at 5 µM: read-out: TRPA1 % Inhibition rate (5 μM); for IC50: HEK293 human TRPA1, 100 μM cinnamaldehyde. The source says: 2. Inhibitory Activity on Human TRPA1 by Conventional Patch Clamp Assay
In order to compare the influences of different measuring methods on the inhibitory activity of compounds, a conventional patch clamp method was used to further measure the inhibitory activity of compounds 1, 11, 31, 50, and 78 on TRPA1. The principle and procedures of the conventional patch clamp assay could be found in the literature report of Chen et al [Chen et al. Pain 2011, 152(5):1165-72].
Evaluation of TRPA1 inhibitory activity of compounds was conducted using the HEK293 recombinant cell strain (Creative Biogene, NY) stably expressing human TRPA1. Cells were cultured in a DMEM/F12 (3:1, Thermo Fisher Scientific) medium (containing 5% calf serum, 2 mM glutamine and 20 mM HEPES) in an incubator at 37° C. and air humidity containing 5% CO2.
During the experiment, the adherent cells were placed in a recording room under the inverted microscope. All experiments were performed at room temperature. Each cell itself was used as a control thereof.
Test compounds at a final concentration were all prepared on the testing day and then dissolved in the extracellular fluid. The extracellular fluid was (mM): NaCl, 137; KCl, 4; CaCl2, 1.8; MgCl2, 1; HEPES, 10; glucose 10; pH 7.4 (NaOH titration). All the solutions of the test compounds and control compounds contained 0.3% DMSO.
The compounds were all perfused with a perfusion system by virtue of their own gravity. At least two cells were tested for each concentration of the compound. After the current became stable, the variation in magnitude of the current before and after the compound was used to calculate the blocking effect of the compound. 100 μM cinnamaldehyde was used as the positive control.
The cells were transferred to the perfusion tank and perfused with extracellular fluid. The intracellular fluid was: 130 mM K-aspartate; 5 mM MgCl2; 5 mM EGTA; 10 mM
HEPES; pH 7.2 (KOH titration). The intracellular fluid was stored in a small amount in a −80 degree refrigerator in batches, and thawed on the day of the experiment. The electrode was pulled with PC-10 (Narishige, Japan). Whole-cell patch clamp recording was adopted and noise was filtered at one-fifth of the sampling frequency.
The cells were clamped at 20 mV, and then depolarized to 80 mV with a square wave of 500 milliseconds to obtain the TRPA1 current (see FIG. 1).
This procedure was repeated every 3 seconds. Cells were patched in a normal extracellular fluid, current A was obtained via voltage procedure testing, and then perfusion was conducted with an extracellular fluid added with 100 μM cinnamaldehyde to activate TRPA1 current to obtain current B. After the current stabilized, elution was conducted with normal extracellular fluid and perfusion was conducted with an extracellular fluid added with 100 μM cinnamaldehyde and a compound at various concentrations to obtain current C. Finally, blocking rate of the compound was obtained according to […], see FIG. 2.
Data collection and analysis was conducted using pCLAMP 10 (Molecular Devices, Union City, CA). Current stabilization meant that the variation in the current with time was within a limited range. The magnitude of the current after stabilization was used to reflect the effect of the compound in this process.
For orientation: The patch-clamp technique gives a direct electrical read-out from membranes.

T1 sequence (O75762 whole entry): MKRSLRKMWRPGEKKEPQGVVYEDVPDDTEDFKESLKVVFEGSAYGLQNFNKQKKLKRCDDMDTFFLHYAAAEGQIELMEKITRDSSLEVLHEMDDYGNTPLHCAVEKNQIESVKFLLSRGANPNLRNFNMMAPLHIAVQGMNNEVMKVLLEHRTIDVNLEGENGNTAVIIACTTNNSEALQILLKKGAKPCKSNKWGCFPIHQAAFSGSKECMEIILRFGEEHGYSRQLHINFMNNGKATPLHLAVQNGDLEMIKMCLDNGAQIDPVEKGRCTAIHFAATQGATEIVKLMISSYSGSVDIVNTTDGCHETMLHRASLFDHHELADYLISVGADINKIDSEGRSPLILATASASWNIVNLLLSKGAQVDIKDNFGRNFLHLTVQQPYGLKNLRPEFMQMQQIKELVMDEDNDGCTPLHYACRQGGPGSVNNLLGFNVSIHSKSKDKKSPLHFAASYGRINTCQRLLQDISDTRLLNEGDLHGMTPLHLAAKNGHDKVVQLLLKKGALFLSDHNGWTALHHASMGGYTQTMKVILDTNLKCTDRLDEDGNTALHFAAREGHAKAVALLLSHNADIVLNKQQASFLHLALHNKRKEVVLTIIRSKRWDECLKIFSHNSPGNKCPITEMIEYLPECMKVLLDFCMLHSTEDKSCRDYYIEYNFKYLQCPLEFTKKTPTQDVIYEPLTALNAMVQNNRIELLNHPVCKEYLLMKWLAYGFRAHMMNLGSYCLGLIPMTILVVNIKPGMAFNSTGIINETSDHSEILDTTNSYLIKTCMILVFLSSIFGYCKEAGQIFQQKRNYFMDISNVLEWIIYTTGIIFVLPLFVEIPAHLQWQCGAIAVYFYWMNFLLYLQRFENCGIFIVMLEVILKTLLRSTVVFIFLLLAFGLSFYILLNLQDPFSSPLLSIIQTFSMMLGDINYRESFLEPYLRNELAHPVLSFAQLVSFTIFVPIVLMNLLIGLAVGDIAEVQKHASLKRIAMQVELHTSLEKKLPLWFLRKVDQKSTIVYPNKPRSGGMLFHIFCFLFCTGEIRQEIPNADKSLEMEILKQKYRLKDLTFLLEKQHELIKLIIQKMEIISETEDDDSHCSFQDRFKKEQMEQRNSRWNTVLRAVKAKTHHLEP

A word on the IC50: it is the midpoint of a concentration-inhibition curve. Usually inhibition stands for the drop in the measured response relative to a control, in per cent. Turning to `N#Cc1ccc(NC2(C(=O)N3CCN(c4ccc(C(F)(F)F)cc4)CC3)CCCC2)cc1` [Compound 1, 4-((1-(4-(4-(trifluoromethyl)phenyl)piperazine-1-carbonyl)cyclopentyl)amino)benzonitrile], the IC50 in assay [1] came to 0.04 µM. In assay [2], the inhibition at 5 µM was 99% and inhibition was half-maximal at 0.056 µM (IC50).
Taken in the same sequence, the figures for `CC(C)(C)C1CCN(C(=O)C2(Nc3ccc(C#N)cc3)CCCC2)CC1` [Compound 31, 4-((1-(4-(tert-butyl)piperidine-1-carbonyl)cyclopentyl)amino)benzonitrile] were 0.087 µM, 117% and 0.098 µM.
